Assay in all cases: relative viability (nuclei count vs DMSO), 5 days (fraction); higher = more cells survive
Compound in one test: CC1=C(CC(=O)O)c2cc(F)ccc2/C1=C\c1ccc([S+](C)[O-])cc1 [Sulindac]
In a few lines:
(§1)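 Lung cancer cell lines received five library-drug doses (not always all listed) spaced by √10, pinned on vehicle-anchored 1536-well plates after an overnight stay at 37 °C. Five days later, with no medium change, nuclei were Hoechst-stained, imaged at 4× and counted with MetaXpress. Viability is treated-well nuclei relative to vehicle-well nuclei, as a median across plates. Passing plates had control CV below 25% and at least one doubling.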

Compound in the next test: CN[C@@H]1C[C@H]2O[C@@](C)([C@@H]1OC)n1c3ccccc3c3c4c(c5c6ccccc6n2c5c31)C(=O)NC4 [Staurosporine]
Summed up: as §1

Compound in a further test: O=c1[nH]cc(F)c(=O)[nH]1 [5-Fluorouracil]
In a few lines:
as §1

Compound in test [1]: CN[C@@H]1C[C@H]2O[C@@](C)([C@@H]1OC)n1c3ccccc3c3c4c(c5c6ccccc6n2c5c31)C(=O)NC4 [Staurosporine] + Cc1nc(Nc2ncc(C(=O)Nc3c(C)cccc3Cl)s2)cc(N2CCN(CCO)CC2)n1 [Dasatinib] (partner 0.075 µM)
In a few lines: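 Relative viability divides the nuclei count in treated wells by that in vehicle wells. Lung cancer cell lines were seeded in 1536-well plates, dosed by pin tool the next day, and fixed and stained after 5 days in one step with final 0.05% Triton X-100, 1% formaldehyde and 1 ug/ml Hoechst. Dosing was a single drug or a fixed anchor-drug dose plus five library-drug doses (not always all listed) in √10 steps, and values are medians of duplicate plates imaged at 4×.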

NCI-H1623: the relative viability in the test with Sulindac (0.08 µM) came to 0.896; in the test with Sulindac (0.253 µM), 0.963; with Sulindac (0.8 µM), 0.936; with Sulindac (2.53 µM) it was 0.961; with Sulindac (8 µM), 1; in the test with Staurosporine (0.005 µM), 1.14. Further, the relative viability with Staurosporine (0.01581 µM) was determined as 1.12; with Staurosporine (0.05 µM) it was 1.08; in the test with Staurosporine (0.1581 µM), 0.932; with Staurosporine (0.5 µM) it was 0.519; with 5-Fluorouracil (0.02 µM), 0.581; in the test with 5-Fluorouracil (0.2 µM), 0.355. In addition, the relative viability with 5-Fluorouracil (0.6325 µM) worked out at 0.283; with 5-Fluorouracil (2 µM), 0.267; in test [1] (first compound 0.005 µM) it was 0.635; in test [1] (first compound 0.01581 µM), 0.425; in test [1] (first compound 0.05 µM), 0.651; in test [1] (first compound 0.1581 µM), 0.553. Moreover, in test [1] (first compound 0.5 µM), the relative viability came out at 0.41.
As to NCI-H1650, the relative viability with Sulindac (0.08 µM) is 0.851; in the test with Sulindac (0.253 µM) it was 1.1; with Sulindac (0.8 µM) it was 0.732; with Sulindac (2.53 µM), 0.942; in the test with Sulindac (8 µM) it was 1.01; in the test with Staurosporine (0.005 µM) it was 0.684. Besides, the relative viability with Staurosporine (0.01581 µM) worked out at 0.372; with Staurosporine (0.05 µM), 0.314; in the test with Staurosporine (0.1581 µM) it was 0.15; with Staurosporine (0.5 µM), 0.0851; with 5-Fluorouracil (0.02 µM) it was 0.814; with 5-Fluorouracil (0.2 µM), 0.878. The relative viability stood at 0.564 with 5-Fluorouracil (0.6325 µM); 0.343 with 5-Fluorouracil (2 µM); 0.24 in test [1] (first compound 0.005 µM); 0.225 in test [1] (first compound 0.01581 µM); 0.166 in test [1] (first compound 0.05 µM); 0.127 in test [1] (first compound 0.1581 µM). Also, in test [1] (first compound 0.5 µM), the relative viability turned out to be 0.119.
With NCI-H1651, the relative viability was 1.04 with Sulindac (0.08 µM); 1.04 with Sulindac (0.253 µM); 0.771 with Sulindac (0.8 µM); 1.01 in the test with Sulindac (2.53 µM); 1.02 with Sulindac (8 µM); 1.02 with Staurosporine (0.005 µM). The relative viability with Staurosporine (0.01581 µM) came to 0.751; with Staurosporine (0.05 µM), 0.548; with Staurosporine (0.1581 µM), 0.357; with Staurosporine (0.5 µM) it was 0.285; with 5-Fluorouracil (0.02 µM), 1.04; in the test with 5-Fluorouracil (0.2 µM) it was 0.896. The relative viability with 5-Fluorouracil (0.6325 µM) was 0.504; in the test with 5-Fluorouracil (2 µM), 0.458; in test [1] (first compound 0.005 µM), 0.335; in test [1] (first compound 0.01581 µM), 0.211; in test [1] (first compound 0.05 µM), 0.239; in test [1] (first compound 0.1581 µM), 0.107. Also, the relative viability in test [1] (first compound 0.5 µM) was determined as 0.0833.
With NCI-H1666, the relative viability in the test with Sulindac (0.08 µM) was 0.906; with Sulindac (0.253 µM) it was 0.978; with Sulindac (0.8 µM), 0.886; in the test with Sulindac (2.53 µM), 0.982; in the test with Sulindac (8 µM), 1.08; with Staurosporine (0.005 µM), 0.7. Further, the relative viability worked out at 0.68 with Staurosporine (0.01581 µM); 0.557 with Staurosporine (0.05 µM); 0.484 with Staurosporine (0.1581 µM); 0.373 with Staurosporine (0.5 µM); 1.04 with 5-Fluorouracil (0.02 µM); 0.683 with 5-Fluorouracil (0.2 µM). Further, the relative viability was determined as 0.503 with 5-Fluorouracil (0.6325 µM); 0.479 in the test with 5-Fluorouracil (2 µM); 0.602 in test [1] (first compound 0.005 µM); 0.419 in test [1] (first compound 0.01581 µM); 0.484 in test [1] (first compound 0.05 µM); 0.261 in test [1] (first compound 0.1581 µM). The relative viability in test [1] (first compound 0.5 µM) amounted to 0.196.
As to NCI-H1734, the relative viability came out at 1.17 with Sulindac (0.08 µM); 1 with Sulindac (0.253 µM); 0.787 with Sulindac (0.8 µM); 0.991 with Sulindac (2.53 µM); 1.07 in the test with Sulindac (8 µM); 0.899 in the test with Staurosporine (0.005 µM). For the same cell line, the relative viability worked out at 0.375 with Staurosporine (0.01581 µM); 0.291 with Staurosporine (0.05 µM); 0.151 with Staurosporine (0.1581 µM); 0.113 with Staurosporine (0.5 µM); 0.93 with 5-Fluorouracil (0.02 µM); 1.08 with 5-Fluorouracil (0.2 µM). Besides, the relative viability is 0.859 in the test with 5-Fluorouracil (0.6325 µM); 0.461 in the test with 5-Fluorouracil (2 µM); 0.309 in test [1] (first compound 0.005 µM); 0.136 in test [1] (first compound 0.05 µM); 0.1 in test [1] (first compound 0.1581 µM); 0.116 in test [1] (first compound 0.5 µM).
In the case of NCI-H1755, the relative viability with Sulindac (0.08 µM) worked out at 1.1; in the test with Sulindac (0.253 µM) it was 1.09; with Sulindac (0.8 µM), 1.01; with Sulindac (2.53 µM), 1.08; with Sulindac (8 µM) it was 1.06; with Staurosporine (0.005 µM) it was 0.829. The relative viability with Staurosporine (0.01581 µM) amounted to 0.47; with Staurosporine (0.05 µM) it was 0.319; with Staurosporine (0.1581 µM) it was 0.191; with Staurosporine (0.5 µM) it was 0.213; in the test with 5-Fluorouracil (0.02 µM), 1.02; with 5-Fluorouracil (0.2 µM), 0.994. The relative viability with 5-Fluorouracil (0.6325 µM) came to 0.356; in the test with 5-Fluorouracil (2 µM) it was 0.304; in test [1] (first compound 0.005 µM), 0.229; in test [1] (first compound 0.01581 µM) it was 0.206; in test [1] (first compound 0.05 µM) it was 0.149; in test [1] (first compound 0.5 µM), 0.169.
Turning to NCI-H1792, the relative viability with Sulindac (0.08 µM) is 1.19; with Sulindac (0.253 µM), 1.08; with Sulindac (2.53 µM), 1.07; in the test with Sulindac (8 µM), 1.09; with Staurosporine (0.005 µM), 0.536; with Staurosporine (0.01581 µM) it was 0.251. Also, the relative viability in the test with Staurosporine (0.05 µM) amounted to 0.235; with Staurosporine (0.1581 µM), 0.173; in the test with Staurosporine (0.5 µM), 0.177; in the test with 5-Fluorouracil (0.02 µM), 0.975; with 5-Fluorouracil (0.2 µM), 0.851; with 5-Fluorouracil (0.6325 µM) it was 0.278. Also, the relative viability turned out to be 0.344 in the test with 5-Fluorouracil (2 µM); 0.897 in test [1] (first compound 0.005 µM); 0.639 in test [1] (first compound 0.01581 µM); 0.451 in test [1] (first compound 0.05 µM); 0.359 in test [1] (first compound 0.1581 µM); 0.289 in test [1] (first compound 0.5 µM).

Values taken from the supplement of paper PMC10307832.
